Test results reported in ChEMBL document CHEMBL1667746, “Synthesis, antimicrobial activity and structure-activity relationship study of N,N-dibenzyl-cyclohexane-1,2-diamine derivatives” (Eur J Med Chem, 2011).
Values after ≈ are worked out from the molar mass of the structure shown. Active and inactive are the calls of the source. No cut-off for these calls is given here.

Experiments:
[1] = Toxicity in human RBC assessed as hemolysis at 1024 ug/ml; assay type: cell-based, Erythrocyte; conditions: for hemolysis at 1024 ug/ml: red blood cells, read-out: Activity; for Activity: erythrocyte
Pseudomonas aeruginosa = experiment: Antibacterial activity against Pseudomonas aeruginosa after 24 hrs micro dilution assay; assay type: functional
Escherichia coli = experiment: Antibacterial activity against Escherichia coli after 24 hrs micro dilution assay; assay type: functional
[2] = tested on: Staphylococcus epidermidis; experiment: Antibacterial activity against Staphylococcus epidermidis after 24 hrs micro dilution assay; assay type: functional
Staphylococcus aureus = experiment: Antibacterial activity against Staphylococcus aureus after 24 hrs micro dilution assay; assay type: functional
Geotrichum candidum = experiment: Antifungal activity against Geotrichum candidum NCIM 980 after 24 hrs micro dilution assay; assay type: functional
Nakaseomyces glabratus = experiment: Antifungal activity against Candida glabrata MTCC 3019 after 24 hrs micro dilution assay; assay type: functional
Candida albicans = experiment: Antifungal activity against Candida albicans MTCC 3017 after 24 hrs micro dilution assay; assay type: functional
[3] = Pseudomonas aeruginosa, 24 h, read-out: MIC
[4] = Escherichia coli, 24 h, read-out: MIC
[5] = Staphylococcus epidermidis, 24 h, read-out: MIC
[6] = Staphylococcus aureus, 24 h, read-out: MIC

| SMILES | hemolysis at 1024 ug/ml [1] [%] | MIC (Pseudomonas aeruginosa; [3]) [mg/L] | MIC (Escherichia coli; [4]) [mg/L] | MIC [2, 5] [mg/L] | MIC (Staphylococcus aureus; [6]) [mg/L] | MIC (Geotrichum candidum; NCIM 980, 24 h) [mg/L] | MIC (Nakaseomyces glabratus) | MIC (Candida albicans; MTCC 3017, 24 h) [mg/L] | MIC (Staphylococcus aureus) | MIC (Nakaseomyces glabratus; MTCC 3019, 24 h) [mg/L] | Activity [1] | MIC (Candida albicans) | MIC (Pseudomonas aeruginosa) | MIC (Escherichia coli) | MIC [2] | MIC (Geotrichum candidum) |
| --- | --- | --- | --- | --- | --- | --- | --- | --- | --- | --- | --- | --- | --- | --- | --- | --- |
| Cl.Clc1ccc(CN[C@H]2CCCC[C@@H]2NCc2ccc(Cl)cc2)cc1 | 4.8 | 0.032 | 0.032 | 0.032 | 0.032 | – | – | – | – | – | – | – | – | – | – | – |
| Cl.Clc1cccc(CN[C@H]2CCCC[C@@H]2NCc2cccc(Cl)c2)c1 (racemic) | – | 0.065 | 0.032 | 0.032 | – | 0.032 | inactive | 0.125 | inactive | – | – | – | – | – | – | – |
| CCc1ccc(CNC2CCCCC2NCc2ccc(CC)cc2)cc1.Cl (stereo not given) | 38.3 | 0.004 | 0.008 | 0.008 | 0.008 | 0.032 | – | 0.032 | – | 0.032 | – | – | – | – | – | – |
| Cl.O=[N+]([O-])c1cccc(CNC2CCCCC2NCc2cccc([N+](=O)[O-])c2)c1 (stereo not given) | – | 0.25 | 0.5 | 1 | 0.5 | – | – | – | – | – | Non-toxic | – | – | – | – | – |
| Cc1ccc(CNC2CCCCC2NCc2ccc(C)cc2)cc1.Cl (stereo not given) | 19.2 | 0.125 | 0.25 | 0.25 | 0.125 | 0.25 | inactive | – | – | – | – | inactive | – | – | – | – |
| Clc1ccccc1CNC1CCCCC1NCc1ccccc1Cl (stereo not given) | 9.83 | – | – | – | – | – | – | – | inactive | – | – | – | inactive | inactive | inactive | – |
| Brc1cccc(CNC2CCCCC2NCc2cccc(Br)c2)c1.Cl (stereo not given) | – | 0.25 | 0.065 | 0.065 | 0.008 | 0.065 | – | 0.125 | – | 0.25 | Non-toxic | – | – | – | – | – |
| Cl.FC(F)(F)c1ccc(CNC2CCCCC2NCc2ccc(C(F)(F)F)cc2)cc1 (stereo not given) | – | 0.008 | 0.032 | 0.032 | 0.008 | 0.065 | – | 0.125 | – | 0.125 | Non-toxic | – | – | – | – | – |
| Cl.FC(F)(F)c1cccc(CNC2CCCCC2NCc2cccc(C(F)(F)F)c2)c1 (stereo not given) | – | 0.25 | 0.065 | 0.032 | 0.016 | 0.125 | – | 0.125 | – | 0.25 | Non-toxic | – | – | – | – | – |
| Brc1ccc(CNC2CCCCC2NCc2ccc(Br)cc2)cc1.Cl (stereo not given) | – | 0.032 | 0.25 | 0.032 | 0.016 | 0.032 | – | 0.125 | – | 0.125 | Non-toxic | – | – | – | – | – |
| COc1ccc(CNC2CCCCC2NCc2ccc(OC)cc2)cc1.Cl (stereo not given) | – | – | – | – | – | – | – | – | inactive | – | Non-toxic | – | inactive | inactive | inactive | – |
| C[C@@H]1[C@H](O)[C@@H](C)/C=C/C=C/C=C/C=C/C=C/C=C/C=C/[C@H](O[C@@H]2O[C@H](C)[C@@H](O)[C@H](N)[C@@H]2O)C[C@@H]2O[C@](O)(C[C@@H](O)C[C@@H](O)[C@H](O)CC[C@@H](O)C[C@@H](O)CC(=O)O[C@H]1C)C[C@H](O)[C@H]2C(=O)O [AMPHOTERICIN B] | – | – | – | – | – | 6.25 (≈ 6.76 µM) | – | 0.3 (≈ 0.325 µM) | – | 50 (≈ 54.1 µM) | – | – | – | – | – | – |
| CN(C)[C@@H]1C(O)=C(C(N)=O)C(=O)[C@@]2(O)C(O)=C3C(=O)c4c(O)cccc4[C@@](C)(O)[C@H]3C[C@@H]12 [TETRACYCLINE] | – | – | 0.001 (≈ 0.00225 µM) | 0.002 (≈ 0.0045 µM) | 0.001 (≈ 0.00225 µM) | – | – | – | – | – | – | – | – | – | – | – |
| Cl.FC(F)(F)c1ccccc1CNC1CCCCC1NCc1ccccc1C(F)(F)F (stereo not given) | – | 0.032 | 0.25 | 0.065 | 0.065 | 0.5 | inactive | 0.5 | – | – | Non-toxic | – | – | – | – | – |
| Cl.O=[N+]([O-])c1ccccc1CNC1CCCCC1NCc1ccccc1[N+](=O)[O-] (stereo not given) | – | – | – | – | – | – | – | – | inactive | – | Non-toxic | – | inactive | inactive | inactive | – |
| Cl.Clc1ccc(CNC2CCCCC2NCc2ccc(Cl)cc2Cl)c(Cl)c1 (racemic) | – | 0.016 | 0.032 | 0.032 | 0.016 | – | – | – | – | – | – | – | – | – | – | – |
| Cl.Clc1ccc(CNC2CCCCC2NCc2ccc(Cl)cc2)cc1 (stereo not given) | – | 0.008 | 0.008 | 0.008 | 0.008 | 0.032 | – | 0.125 | – | 0.125 | Non-toxic | – | – | – | – | – |

| SMILES | hemolysis at 1024 ug/ml [1] [%] | MIC (Pseudomonas aeruginosa; [3]) [mg/L] | MIC (Escherichia coli; [4]) [mg/L] | MIC [2, 5] [mg/L] | MIC (Staphylococcus aureus; [6]) [mg/L] | MIC (Geotrichum candidum; NCIM 980, 24 h) [mg/L] | MIC (Nakaseomyces glabratus) | MIC (Candida albicans; MTCC 3017, 24 h) [mg/L] | MIC (Staphylococcus aureus) | MIC (Nakaseomyces glabratus; MTCC 3019, 24 h) [mg/L] | Activity [1] | MIC (Candida albicans) | MIC (Pseudomonas aeruginosa) | MIC (Escherichia coli) | MIC [2] | MIC (Geotrichum candidum) |
| --- | --- | --- | --- | --- | --- | --- | --- | --- | --- | --- | --- | --- | --- | --- | --- | --- |
| Cl.O=[N+]([O-])c1ccc(CNC2CCCCC2NCc2ccc([N+](=O)[O-])cc2)cc1 (stereo not given) | – | 0.125 | – | – | – | 0.5 | inactive | – | inactive | – | Non-toxic | inactive | – | inactive | inactive | – |
| Cl.FC(F)(F)c1ccc(C(F)(F)F)c(CNC2CCCCC2NCc2cc(C(F)(F)F)ccc2C(F)(F)F)c1 (stereo not given) | – | – | – | – | – | – | – | – | inactive | – | Non-toxic | – | inactive | inactive | inactive | – |
| CC(C)c1ccc(CNC2CCCCC2NCc2ccc(C(C)C)cc2)cc1.Cl (stereo not given) | 81.8 | 0.0005 | 0.004 | 0.008 | 0.008 | – | – | 0.008 | – | 0.016 | – | – | – | – | – | inactive |
| Brc1ccc(CN[C@H]2CCCC[C@@H]2NCc2ccc(Br)cc2)cc1.Cl | – | 0.008 | 0.008 | 0.016 | 0.002 | 0.032 | – | 0.065 | – | 0.032 | Non-toxic | – | – | – | – | – |
| Cc1cccc(CNC2CCCCC2NCc2cccc(C)c2)c1.Cl (stereo not given) | 4.78 | 0.065 | 0.125 | 0.25 | 0.032 | 0.25 | inactive | – | – | – | – | inactive | – | – | – | – |
| CCCCc1ccc(CNC2CCCCC2NCc2ccc(CCCC)cc2)cc1.Cl (stereo not given) | 7.68 | 0.0005 | 0.008 | 0.008 | 0.008 | 0.008 | – | 0.008 | – | 0.008 | – | – | – | – | – | – |
| Cl.Fc1cccc(CNC2CCCCC2NCc2cccc(F)c2)c1 (stereo not given) | – | 0.25 | 0.25 | 0.25 | – | 0.5 | inactive | – | inactive | – | Non-toxic | inactive | – | – | – | – |
| c1ccc(CNC2CCCCC2NCc2ccccc2)cc1 (stereo not given) | – | – | – | – | – | – | – | – | inactive | – | – | – | inactive | inactive | inactive | – |
| Cc1ccccc1CNC1CCCCC1NCc1ccccc1C.Cl (stereo not given) | – | 0.125 | 0.125 | 0.25 | 0.25 | 0.25 | inactive | – | – | – | Non-toxic | inactive | – | – | – | – |
| CC(C)(C)c1ccc(CNC2CCCCC2NCc2ccc(C(C)(C)C)cc2)cc1.Cl (stereo not given) | – | 0.0006 | 0.008 | 0.008 | 0.004 | 0.008 | – | 0.008 | – | 0.008 | Non-toxic | – | – | – | – | – |
| Brc1cccc(CN[C@H]2CCCC[C@@H]2NCc2cccc(Br)c2)c1.Cl | – | – | 0.032 | 0.032 | 0.008 | 0.065 | – | 0.125 | – | 0.065 | Non-toxic | – | 0.008 mg/L | – | – | – |
| Brc1cccc(CN[C@H]2CCCC[C@@H]2NCc2cccc(Br)c2)c1.Cl (racemic) | – | – | – | – | – | – | – | – | 0.008 mg/L | – | – | – | 0.032 mg/L | 0.016 mg/L | 0.032 mg/L | – |
| Cl.FC(F)(F)c1ccc(CNC2CCCCC2NCc2ccc(C(F)(F)F)cc2C(F)(F)F)c(C(F)(F)F)c1 (stereo not given) | – | – | – | – | – | – | – | – | inactive | – | Non-toxic | – | inactive | inactive | inactive | – |
| Brc1ccccc1CNC1CCCCC1NCc1ccccc1Br.Cl (stereo not given) | – | – | – | – | – | – | – | – | inactive | – | Non-toxic | – | inactive | inactive | inactive | – |
| Cl.FC(F)(F)c1ccc(CN[C@H]2CCCC[C@@H]2NCc2ccc(C(F)(F)F)cc2)cc1 | – | 0.008 | 0.032 | 0.032 | 0.016 | 0.065 | – | 0.125 | – | 0.065 | Non-toxic | – | – | – | – | – |
| Cl.FC(F)(F)c1cccc(CN[C@H]2CCCC[C@@H]2NCc2cccc(C(F)(F)F)c2)c1 | 3.7 | 0.008 | 0.032 | 0.065 | 0.016 | 0.125 | – | – | – | 0.125 | – | inactive | – | – | – | – |
| Cl.Clc1cccc(CNC2CCCCC2NCc2cccc(Cl)c2)c1 (stereo not given) | 9.68 | 0.008 | 0.032 | 0.032 | 0.032 | 0.065 | – | 0.125 | – | 0.125 | – | – | – | – | – | – |
